# Data from patent US7250304B2, “Functional assay of high-density lipoprotein” (The Regents of the University of California, priority 2000, dated 2007).
# Tests used:
# [1] = Non-enzymatic oxidation of PAPC to POVPC, PGPC, PEIPC (ESI-MS); details: for amount that significantly decreased PAPC and increased the three oxidized phospholipids: added to 10 μg of PAPC for 8 hours
# [2] = Non-enzymatic formation of cholesteryl linoleate hydroperoxide (RP-HPLC); details: 0.5 μg/ml with cholesteryl linoleate 10 μg/ml, air oxidation 6 hrs
# Method: […] 0.5 μg/ml (Panel A) or cholesteryl linoleate 10 μg/ml (Panel B) or cholesteryl linoleate 10 μg/ml together with 13(S) HPODE 0.5 μg/ml (Panel C) in chloroform/methanol (2:1, v/v) containing 0.01% BHT was briefly swirled to mix and evaporated to dryness under argon and allowed to undergo air oxidation in a laminar flow hood for 6 hrs. The lipids were solubilized in 50 μl of chloroform and analyzed for the presence of cholesteryl linoleate hydroperoxide (Ch18:2-OOH) by RP-HPLC as described herein.
# Fast performance liquid chromatography (FPLC) and reverse phase high performance liquid chromatography ([…]) were performed as described in example 1. For the detection of cholesteryl linoleate hydroperoxide an Alltech Alltima 250×4.6 mm, 5 micron RP-HPLC C18 column was used to separate and detect cholesteryl linoleate hydroperoxide at 234 nm and cholesteryl linoleate at 205 nm. The mobile solvent consisted of acetonitrile/2-propanol/water (44:54:2, v/v/v) at 1.0 ml/min. Lipids were resuspended in the mobile solvent for injection.
# HAEC monolayers = assay: Monocyte adhesion assay; format: cell-based, human; details: LDL 250 μg pre-incubated with agent 4 hrs, re-isolated
# Method: In brief, HAEC monolayers, in 48-well tissue culture plates were incubated with the desired LDL or phospholipid for 4 hrs at 37° C. as described (Watson et al. (1995) J. Clin. Invest. 96: 2882-2891). After washing, a suspension of human peripheral blood monocytes was added and incubated for 10 min. The loosely adherent monocytes were then washed away, the monolayers were fixed and the number of adherent monocytes counted in 9 high power microscopic fields.
# Freshly isolated LDL (250 μg) was incubated with pure 13(S)-HPODE (1.0 μg) in 10% LPDS in M 199 for 4 hrs at 37° C. with gentle mixing. LDL was re-isolated by centrifugation and was incubated with monolayers of human aortic endothelial cells. […] The endothelial monolayer was washed after each time point and a monocyte suspension was added, incubated, washed, and the number of adherent monocytes determined.
# Freshly isolated LDL (250 μg) was incubated with 10 units of pure soybean lipoxygenase bound to sepharose beads for 4 hrs at 37° C. with gentle mixing. […] The endothelial monolayer was washed after each time point and monocyte adhesion determined.
# Blood samples were collected from patients referred to the cardiac catheterization laboratory at The Center for Health Sciences at the University of California, Los Angeles. […] The HDL-Ox-PAPC mixture was then added to endothelial monolayers and monocyte binding was determined.
# [3] = tested on: human aortic endothelial cells; assay: Lipid hydroperoxide formation when treated LDL is added to HAEC; format: cell-based; details: LDL 250 μg pre-incubated with agent 4 hrs, re-isolated
# Method: Freshly isolated LDL (250 μg) was incubated with pure 13(S)-HPODE (1.0 μg) in 10% LPDS in M 199 for 4 hrs at 37° C. with gentle mixing. LDL was re-isolated by centrifugation and was incubated with monolayers of human aortic endothelial cells. Supernatants were removed at time points ranging from zero to 5 hours and were assayed for lipid hydroperoxide content. The endothelial monolayer was washed after each time point and a monocyte suspension was added, incubated, washed, and the number of adherent monocytes determined.
# Freshly isolated LDL (250 μg) was incubated with 10 units of pure soybean lipoxygenase bound to sepharose beads for 4 hrs at 37° C. with gentle mixing. LDL was re-isolated by centrifugation and incubated with monolayers of HAEC. Supernatants were removed at time points ranging from zero to 4 hours and were assayed for lipid hydroperoxide content. The endothelial monolayer was washed after each time point and monocyte adhesion determined.
# (§1) Statistical significance was determined by model 1 ANOVA. […] Significance is defined as p<0.05.
# [4] = tested on: human artery wall cell cocultures; assay: LDL oxidation by human artery wall cell cocultures (lipid hydroperoxides); format: cell-based; details: for reduction in lipid hydroperoxide levels: cocultures preincubated with inhibitor 1×10^−8 mol/L before addition of LDL 250 μg/ml, 8 hrs; for oxidation of LDL by fatty acid pretreated artery wall cells: cocultures 18 hours with 100 μM fatty acid, washed, then LDL 250 μg/ml; for ability of pretreated artery wall cocultures to oxidize LDL: cocultures incubated 8 hrs with agent, agent removed before LDL 250 μg/ml
# Method: (§2) The wells of the microtiter plates were treated with 0.1% gelatin at 37° C. overnight. HASMC were added at a confluent density of 1×10^5 cells/cm^2. Cells were cultured for 2 d at which time they had covered the entire surface of the well and had produced a substantial amount of extracellular matrix. HAEC were subsequently added at 2×10^5 cells/cm^2 and were allowed to grow forming a complete monolayer of confluent HAEC in 2 d. In all experiments, HAEC and autologous HASMC (from the same donor) were used at passage levels of four to six.
# (§3) In general, the cocultures were treated with native LDL (250 μg/ml) in the absence or presence of HDL for 8 h. The supernatants were collected and used for determination of lipid hydroperoxide levels. The cocultures were subsequently washed and fresh culture medium 199 (M199) without any additions was added and incubated for an additional 8 hrs. This allowed the collection of monocyte chemotactic activity released by the cells as a result of stimulation by the oxidized LDL. At the end of incubation, the supernatants were collected from cocultures, diluted 40-fold, and assayed for monocyte chemotactic activity. Briefly, the supernatant was added to a standard Neuroprobe chamber (NeuroProbe, Cabin John, Md.), with monocytes added to the top. The chamber was incubated for 60 min at 37° C. After the incubation, the chamber was disassembled and the nonmigrated monocytes were wiped off. The membrane was then air dried and fixed with 1% glutaraldehyde and stained with 0.1% Crystal Violet dye. The number of migrated monocytes was determined microscopically and expressed as the mean±SD of 12 standardized high power fields counted in quadruple wells.
# as §1
# Human artery wall cocultures were preincubated with ETYA at a concentration of 10^−8 mol/L or with cinnamyl-3,4-dihydroxy-α-cyanocynamate (CDC, from Biomol) at a concentration of 10^−8 mol/L in M199 containing 10% LPDS for 30 min. The cocultures were then washed and LDL was added at 250 μg/ml and incubated for 8 hrs.
# [5] = tested on: human artery wall cell cocultures; assay: Monocyte chemotaxis assay on coculture conditioned medium; format: cell-based; details: for decrease in LDL-induced monocyte chemotactic activity: cocultures preincubated with inhibitor 1×10^−8 mol/L before addition of LDL 250 μg/ml; for LDL-induced monocyte chemotaxis in fatty acid pretreated cocultures: cocultures 18 hours with 100 μM fatty acid, washed, then LDL; for LDL-induced monocyte chemotaxis in pretreated cocultures: cocultures incubated 8 hrs with agent, agent removed before LDL
# Method: as §2
# Monocytes were isolated using a modification of the Recalde method as previously described (Fogelman et al. (1988) J. Lipid Res. 29: 1243-1247) from the blood of normal volunteers after obtaining written consent under a protocol approved by the human research subject protection committee of the University of California, Los Angeles.
# as §3
# [6] = tested on: human artery wall cell cocultures; assay: Hydroperoxide content of apo A-I lipid extract from fatty acid treated cocultures; format: cell-based; details: cocultures with or without C18:2, then apo A-I 100 μg/ml 3 hrs
# Method: The medium was removed and the cultures washed three times. Fresh medium without fatty acids was added and the cultures were incubated at 37° C. for an additional 3 hrs. […] at 250 μg/ml was then added to one set of the cocultures in M199 containing 10% LPDS and incubated for 8 hrs. The medium was then removed and lipid hydroperoxides (Panel A) and monocyte chemotactic activity (Panel B) determined. To the second set of cocultures (Panel C) apo A-I was added at 100 μg/ml and incubated for three more hours with gentle mixing at 37° C. […] Values are mean±SD of triplicate determinations. The asterisks denote p<0.001. […] (1991) Drug Metab. Dispos. 19: 100-106). Statistical significance was determined by model 1 ANOVA. […] Significance is defined as p<0.05.
# paraoxonase = details: mice, six hours after injection
molecule,measurement,setting,value
"CCCCC[C@@H](/C=C/C=C\CCCCCCCC(=O)O)OO [13(S)-HPODE, 13(S)-hydroperoxyoctadecadienoic acid]",ability to oxidize PAPC on a molar basis relative to hydrogen peroxide,[1],more than two orders of magnitude greater
same,"formation of POVPC, PGPC, PEIPC from PAPC as a function of time","[1]; 1.0 μg added to 10 μg PAPC, air oxidation",enhanced the formation of the three biologically active oxidized phospholipids at each time point sampled
same,amount that significantly decreased PAPC and increased the three oxidized phospholipids,[1],0.5 µg
same,non-enzymatic formation of cholesteryl linoleate hydroperoxide (Ch18:2-OOH),[2],markedly stimulated the non-enzymatic formation of cholesteryl linoleate hydroperoxide
same,monocyte adherence to HAEC induced by treated LDL,HAEC monolayers,increased monocyte adherence to HAEC
same,formation of lipid hydroperoxides when treated LDL added to HAEC,[3],increased the formation of lipid hydroperoxides
"CCCCC[C@@H](/C=C/C=C\C/C=C\C/C=C\CCCC(=O)O)OO [15(S)-HPETE, 15(S)-hydroperoxyeicosatetraenoic acid]",ability to oxidize PAPC on a molar basis relative to hydrogen peroxide,[1],more than two orders of magnitude greater
same,amount that significantly decreased PAPC and increased the three oxidized phospholipids,[1],0.5 µg
"N#CC(=Cc1ccc(O)c(O)c1)C(=O)OCC=Cc1ccccc1 [CDC, cinnamyl-3,4-dihydroxy-α-cyanocynamate]",reduction in lipid hydroperoxide levels,[4],73±6%
same,decrease in LDL-induced monocyte chemotactic activity,[5],74±11%
"CCCCCC#CCC#CCC#CCC#CCCCC(=O)O [ETYA, 5,8,11,14-eicosatetraynoic acid]",reduction in lipid hydroperoxide levels,[4],80±7%
same,decrease in LDL-induced monocyte chemotactic activity,[5],75±10%
CCCCC/C=C\C/C=C\C/C=C\C/C=C\CCCC(=O)O [arachidonic acid],oxidation of LDL by fatty acid pretreated artery wall cells,[4],even more potent than linoleic acid
OO [hydrogen peroxide],effect on relative abundance of PAPC and formation of oxidized phospholipids,"[1]; 2 mM and 4 mM, 10 μg PAPC, 8 hours",had no effect
same,effect on relative abundance of PAPC,[1]; 8 mM added to 10 μg PAPC for 8 hours,dramatically decreased the relative abundance of PAPC
CCCCC/C=C\C/C=C\CCCCCCCC(=O)O [linoleic acid],oxidation of LDL by fatty acid pretreated artery wall cells,[4],stimulates the oxidation of LDL by artery wall cells
same,13-HPODE equivalents in the lipid extract of apo A-I,[6],dramatically increased the 13-HPODE equivalents
same,LDL-induced monocyte chemotaxis in fatty acid pretreated cocultures,[5],stimulates LDL-induced monocyte chemotaxis
CCCCCCCC/C=C\CCCCCCCC(=O)O [oleic acid],oxidation of LDL by fatty acid pretreated artery wall cells,[4],not
same,LDL-induced monocyte chemotaxis in fatty acid pretreated cocultures,[5],not
DWL KAF YDK VAE KLK EAF PDW LKA FYD KVA EKL KEA F (DWLKAFYDKVAEKLKEAFPDWLKAFYDKVAEKLKEAF; Synthetic apo A-I peptide mimetic) [37 pA],ability of pretreated artery wall cocultures to oxidize LDL,[4],unable to oxidize the added LDL
same,LDL-induced monocyte chemotaxis in pretreated cocultures,[5],did not induce monocyte chemotaxis
same,LDL-induced monocyte chemotactic activity of LDL pre-incubated with the agent,"[5]; human LDL incubated with agent, re-isolated, then cocultures",did not induce monocyte chemotactic activity
apo A-II: Human apo A-II obtained from Sigma,ability of pretreated artery wall cocultures to oxidize LDL,[4],retained their ability to oxidize LDL
same,LDL-induced monocyte chemotaxis in pretreated cocultures,[5],induce monocyte chemotaxis
same,"PON activity in plasma and HDL, increase",paraoxonase,did not change
